Drawing on patent publication US8569509B2, “Thiazole-4-carboxylic acid esters and thioesters as plant protection agents” (priority 2008, dated 2013), this text covers log p and chromatographic logP for 38 compounds.

The nature of the series: log P determination (HPLC, calibration with unbranched alkan-2-ones). Type of series: physicochemical. The procedure:
The calibration is carried out using unbranched alkan-2-ones (having 3 to 16 carbon atoms) with known log P values (determination of the log P values by the retention times using linear interpolation between two successive alkanones). The lambda-maX values were determined in the maxima of the chromatographic signals using the UV spectra from 200 nm to 400 nm.

The mark [1] stands for this setting: * LC-MS determination in the acidic range at pH 2.7, 0.1% aqueous formic acid and acetonitrile, linear gradient 10% to 95% acetonitrile, reversed-phase C 18.
[2] abbreviates: pH 2.7, read-out: log P (pH 2.7).
[3] abbreviates: reversed-phase (C18) HPLC column, * LC-MS determination in the acidic range, pH 2.7, 0.1% aqueous formic acid / acetonitrile gradient, read-out: log p.
The mark [4] stands for this setting: * LC-MS determination in the acidic range, pH 2.7, 0.1% aqueous formic acid / acetonitrile gradient.
The mark [5] stands for this setting: * LC-MS determination in the acidic range at pH 2.7, 0.1% aqueous formic acid and acetonitrile, linear gradient 10% to 95% acetonitrile.
The mark [6] stands for this setting: reversed-phase C18 HPLC column, * LC-MS determination in the acidic range at pH 2.7, mobile phases 0.1% aqueous formic acid and acetonitrile (0.1% formic acid), linear gradient 10% to 95% acetonitrile, reversed-phase C 18 HPLC, read-out: log p.
[7] abbreviates: * LC-MS determination in the acidic range at pH 2.7, mobile phases 0.1% aqueous formic acid and acetonitrile (0.1% formic acid), linear gradient 10% to 95% acetonitrile, reversed-phase C 18 HPLC.

SMILES strings stand for the structures. Like-named read-outs stand apart in the source and are kept apart here.

`Cc1c(Cl)c(C(F)(F)F)nn1CC(=O)N1CCC(c2nc(C(=O)OC3CCCC4CCCCC43)cs2)CC1` (centres unmarked) [compound 150]: the log p under setting [1] is listed as 5.44*.

`Cc1c(Cl)c(C(F)(F)F)nn1CC(=O)N1CCC(c2nc(C(=O)OC3CCc4ccccc43)cs2)CC1` (centres unmarked) [compound 151]: under setting [1], the log p is reported as 4.17*.

As for `Cc1c(Cl)c(C(F)(F)F)nn1CC(=O)N1CCC(c2nc(C(=O)Oc3cccc4ccccc34)cs2)CC1` [compound 152], the log p under setting [1] was 4.17*.

In the case of `Cc1c(Cl)c(C(F)(F)F)nn1CC(=O)N1CCC(c2nc(C(=O)Oc3ccc4ccccc4c3)cs2)CC1` [compound 153], the log p under setting [1] was 4.17*.

Take `Cc1c(Cl)c(C(F)(F)F)nn1CC(=O)N1CCC(c2nc(C(=O)OCc3ccccc3)cs2)CC1` [compound 154]: under setting [1], the log p is 3.73*.

With `Cc1c(Cl)c(C(F)(F)F)nn1CC(=O)N1CCC(c2nc(C(=O)OCc3ccc(F)cc3)cs2)CC1` [compound 155], the log p under setting [1] was 3.73*.

Consider `Cc1c(Cl)c(C(F)(F)F)nn1CC(=O)N1CCC(c2nc(C(=O)OC(C)c3ccc(F)cc3)cs2)CC1` (centres unmarked) [compound 184], for which, under setting [1], the log p is 3.89*.

As for `Cc1c(Cl)c(C(F)(F)F)nn1CC(=O)N1CCC(c2nc(C(=O)OCCc3ccc(F)cc3)cs2)CC1` [compound 186], the log p under setting [1] was 3.94*.

Take `Cc1c(Cl)c(C(F)(F)F)nn1CC(=O)N1CCC(c2nc(C(=O)Oc3ccccc3)cs2)CC1` [compound 187]: the log p under setting [1] was 3.58*.

As for `Cc1c(Cl)c(C(F)(F)F)nn1CC(=O)N1CCC(c2nc(C(=O)Oc3ccc(F)cc3)cs2)CC1` [compound 188], the log p under setting [1] is 3.63*.

As to `Cc1c(Cl)c(C(F)(F)F)nn1CC(=O)N1CCC(c2nc(C(=O)OCc3ccncc3)cs2)CC1` [compound 217], under setting [1], the log p was 1.82*.

As for `Cc1c(Cl)c(C(F)(F)F)nn1CC(=O)N1CCC(c2nc(C(=O)OCc3cccs3)cs2)CC1` [compound 218], the log p under setting [1] was 3.58*.

As to `Cc1cc(C(F)(F)F)nn1CC(=O)N1CCC(c2nc(C(=O)OC3CCCCC3)cs2)CC1` [compound 220, Cyclohexyl 2-(1-{[5-methyl-3-(trifluoromethyl)-1H-pyrazol-1-yl]acetyl}piperidin-4-yl)-1,3-thiazole-4-carboxylate], the chromatographic logP is, setting by setting: under setting [2], 3.74; (reversed-phase C18 HPLC column, * LC-MS determination in the acidic range at pH 2.7, 0.1% aqueous formic acid and acetonitrile, linear gradient 10% to 95% acetonitrile, reversed-phase C 18, read-out: log p) 3.74.

With `Cc1cc(C(F)(F)F)nn1CC(=O)N1CCC(c2nc(C(=O)OC3CCCc4ccccc43)cs2)CC1` (centres unmarked) [compound 224, 1,2,3,4-Tetrahydronaphthalen-1-yl 2-(1-{[5-methyl-3-(trifluoromethyl)-1H-pyrazol-1-yl]acetyl}piperidin-4-yl)-1,3-thiazole-4-carboxylate], the chromatographic logP was determined as 4.01 under setting [2] and 4.01 under setting [3].

With `Cc1cc(C(F)(F)F)nn1CC(=O)N1CCC(c2nc(C(=O)Oc3cccc4ccccc34)cs2)CC1` [compound 227, 1-Naphthyl 2-(1-{[5-methyl-3-(trifluoromethyl)-1H-pyrazol-1-yl]acetyl}piperidin-4-yl)-1,3-thiazole-4-carboxylate], the chromatographic logP reads like this: under setting [2], 3.75; under setting [3], 3.75.

In the case of `Cc1cc(C(F)(F)F)nn1CC(=O)N1CCCC(c2nc(C(=O)OCc3ccncc3)cs2)C1` (centres unmarked) [compound 292], under setting [4], the log p is 1.51*.

As for `Cc1cc(C(F)(F)F)nn1CC(=O)N1CCCC(c2nc(C(=O)OCc3cccs3)cs2)C1` (centres unmarked) [compound 293], under setting [4], the log p is recorded as 3.23*.

Take `Cc1cc(C)n(C(C)(C)C(=O)N2CCC(c3nc(C(=O)OC4CCCc5ccccc54)cs3)CC2)n1` (centres unmarked) [compound 368]: under setting [5], the log p is 4.04*.

Take `Cc1cc(C)n(C(C)(C)C(=O)N2CCC(c3nc(C(=O)OC[Si](C)(C)C)cs3)CC2)n1` [compound 369]: the log p under setting [5] was 3.84*.

Take `Cc1cc(C)n(C(C)(C)C(=O)N2CCC(c3nc(C(=O)OC4CCCCC4)cs3)CC2)n1` [compound 370]: under setting [5], the log p is on record as 3.78*.

`Cc1cc(C)n(C(C)(C)C(=O)N2CCC(c3nc(C(=O)OCC4CC4)cs3)CC2)n1` [compound 372]: the log p under setting [5] is 3.86*.

For `Cc1cc(C)n(C(C)(C)C(=O)N2CCC(c3nc(C(=O)OC4CCc5ccccc54)cs3)CC2)n1` (centres unmarked) [compound 376], the log p under setting [5] was 3.68*.

Turning to `Cc1cc(C)n(C(C)(C)C(=O)N2CCC(c3nc(C(=O)Oc4cccc5ccccc45)cs3)CC2)n1` [compound 377], under setting [5], the log p is recorded as 3.82*.

For `Cc1cc(C)n(C(C)(C)C(=O)N2CCC(c3nc(C(=O)Oc4ccc5ccccc5c4)cs3)CC2)n1` [compound 378], the log p under setting [5] is 3.73*.

Take `Cc1cc(C)n(C(C)(C)C(=O)N2CCC(c3nc(C(=O)OCc4ccccc4)cs3)CC2)n1` [compound 379]: under setting [5], the log p is recorded as 3.19*.

Take `Cc1cc(C)n(C(C)(C)C(=O)N2CCC(c3nc(C(=O)OCCc4ccc(F)cc4)cs3)CC2)n1` [compound 405]: under setting [5], the log p is 3.42*.

On to `Cc1cc(C)n(C(C)(C)C(=O)N2CCC(c3nc(C(=O)Oc4ccccc4)cs3)CC2)n1` [compound 412], for which, under setting [5], the log p is 3.06*.

`Cc1cc(C)n(C(C)(C)C(=O)N2CCC(c3nc(C(=O)Oc4ccc(F)cc4)cs3)CC2)n1` [compound 413]: the log p under setting [5] was 3.21*.

`Cc1cc(C)n(C(C)(C)C(=O)N2CCC(c3nc(C(=O)OCc4ccncc4)cs3)CC2)n1` [compound 442]: the log p under setting [5] is reported as 1.33*.

`Cc1cc(C)n(C(C)(C)C(=O)N2CCC(c3nc(C(=O)OCc4cccs4)cs3)CC2)n1` [compound 443]: the log p under setting [5] is reported as 3.06*.

Turning to `CC(C)(C)CCOC(=O)c1csc(C2CCN(C(=O)Cn3ccc(C(F)(F)F)n3)CC2)n1` [compound 767, 3,3-Dimethylbutyl 2-(1-{[3-(trifluoromethyl)-1H-pyrazol-1-yl]acetyl}piperidin-4-yl)-1,3-thiazole-4-carboxylate], the chromatographic logP under setting [2] worked out at 3.82; the chromatographic logP (reversed-phase (C18) HPLC column, * LC-MS determination in the acidic range at pH 2.7, 0.1% aqueous formic acid and acetonitrile, linear gradient 10% to 95% acetonitrile, read-out: log p) stood at 3.82.

As for `O=C(Oc1cccc2ccccc12)c1csc(C2CCN(C(=O)Cn3nc(C(F)(F)F)cc3C(F)(F)F)CC2)n1` [compound 771, 1-Naphthyl 2-(1-{[3,5-bis(trifluoromethyl)-1H-pyrazol-1-yl]acetyl}piperidin-4-yl)-1,3-thiazole-4-carboxylate], the chromatographic logP reads like this: under setting [2], 4.35; under setting [6], 4.35.

For `O=C(OC1CCCCC1)c1csc(C2CCN(C(=O)Cn3nc(C(F)(F)F)cc3C(F)(F)F)CC2)n1` [compound 772, Cyclohexyl 2-(1-{[3,5-bis(trifluoromethyl)-1H-pyrazol-1-yl]acetyl}piperidin-4-yl)-1,3-thiazole-4-carboxylate], the chromatographic logP is, setting by setting: under setting [2], 4.39; under setting [6], 4.39.

For `CC(C(=O)N1CCC(c2nc(C(=O)Oc3cccc4ccccc34)cs2)CC1)n1ccc(C(F)(F)F)n1` (centres unmarked) [compound 773], under setting [7], the log p is listed as 3.87*.

Regarding `CC(C(=O)N1CCC(c2nc(C(=O)OC3CCCCC3)cs2)CC1)n1ccc(C(F)(F)F)n1` (centres unmarked) [compound 774], the log p under setting [7] is 3.88*.

Take `Cc1cc(C(F)(F)F)nn1CC(=O)N1CCC(c2nc(C(=O)OCc3ccc(Cl)c(Cl)c3)cs2)CC1` [compound 775]: under setting [7], the log p is on record as 4.09*.

Regarding `Cc1cc(C(F)(F)F)nn1CC(=O)N1CCC(c2nc(C(=O)OCc3ccc(C(F)(F)F)cc3)cs2)CC1` [compound 776], the log p under setting [7] was 3.86*.

For the compound `O=C(Oc1cccc2ccccc12)c1csc(C2CCN(C(=O)Cn3nc(C(F)(F)F)cc3-c3ccccc3)CC2)n1` [compound 777], the log p under setting [7] was 4.50*.
